# Tests used:
# PGE2 = PGE2 production in LPS-stimulated RAW264.7 cells (ELISA); format: cell-based, mouse; settings: SIN 160, 320 or 640 μM or 0.5 μM DEX 1 h, then LPS 100 ng/ml 18 h
# Procedure: (§1) RAW264.7 and A549 cell lines were obtained from American Type Culture Collection (ATCC, Manassas, Va., USA) and maintained in DMEM (RAW264.7) or 1640 (A549) medium containing 10% FBS (Gibco-BRL, Grand Island, N.Y., USA) and antibiotics at 37° C. in a humidified atmosphere containing 5% CO2. RAW264.7 cells were plated in 6-well plates at a density of 4×10^5 cells and incubated for 24 h, then the cells were pretreated with different concentrations of SIN for 1 h before stimulating with LPS (100 ng/ml). A549 cells were seeded in 6-well plates at a density of 1×10^5 cells and incubated for 24 h, followed by pretreatment with SIN. A549 cells were then stimulated by IL-1β (1 ng/ml).
# (§2) RAW264.7 cells and rat peritoneal macrophages were seeded in a 96-well plate at density of 1.4×10^4 and 1.5×10^5 cells, respectively. Various concentration of SIN was added to the cells for 1 hour before LPS stimulation. After stimulation with LPS for 18 h (RAW264.7 cells) or 24 h (rat peritoneal macrophages), MTT solution was added to each well and incubated for another 4 hours. 100 μl 10% SDS-HCl solution was added to each well for overnight to dissolve the formazan dye. The optical density was measured at 570 nm against a reference wavelength of 650 nm using a microplate UV/VIS spectrophotometer (Tecan, Mannedorf, Switzerland). […]
# p-cPLA2 = p-cPLA2 protein expression in LPS-activated rat peritoneal macrophages (western blotting); format: cell-based; settings: SIN or DEX 1 h, LPS 24 h
# Procedure: (§3) Sprague-Dawley (SD) rats from the University of Hong Kong were housed in cages with free access to food and water. Peritoneal macrophages of SD rats were isolated as described in Liu J. et al., Pharmacological research 2016, 111:303-315. Briefly, untreated rats were sacrificed and after laparotomy, about 50 ml cold sterile Hank's balanced salt solution (HBSS) was used to lavage the peritoneal cavity at twice, and then the peritoneal lavage fluid was collected and centrifuged at 1500 rpm for 10 min. The cell pellets was suspended at a density 1.5×10^6 cells/ml in pre-hearted DMEM medium with 10% heat-inactivated FBS, penicillin G (100 units/ml), streptomycin ([…]), and L-glutamine (2 mM), followed by seeding in 6-well plates at a density of 4.5×10^6 cells and incubation for 2 h. Then the medium were discarded to remove the non-adherent cells. The adherent cells were further washed for two times with pre-heated DMEM medium to remove floating cells. Next, cells were pre-treated with various concentration of SIN for 1 h, followed by stimulation with LPS (1 μg/ml).
# (§4) Whole-cell and nuclear proteins were obtained using RIPA lysis buffer (CST, Boston, Mass., USA) and Nuclear and Cytoplasmic Extraction Reagents kit from Thermo Scientific (Asheville, N.C., USA), respectively. […] The levels of protein expression were measured using Odyssey v3.0 software from Li-COR (Lincoln, Nebr., USA).
# COX-2 = COX-2 protein expression in LPS-activated rat peritoneal macrophages (western blotting); format: cell-based; settings: SIN or DEX 1 h, LPS 24 h
# Procedure: as §3, §4
# PGI2 = PGI2 level in culture supernatants of LPS-activated rat peritoneal macrophages (ELISA); format: cell-based; settings: LPS-stimulated rat peritoneal macrophages, culture supernatant
# Procedure: as §3
# (§5) RAW264.7 cells and rat peritoneal macrophages were seeded in a 96-well plate at density of 1.4×10^4 and 1.5×10^5 cells, respectively. […] The optical density was measured at 570 nm against a reference wavelength of 650 nm using a microplate UV/VIS spectrophotometer (Tecan, Mannedorf, Switzerland). […]
# PGD2 = PGD2 level in culture supernatants of LPS-activated rat peritoneal macrophages (ELISA); format: cell-based; settings: LPS-stimulated rat peritoneal macrophages, culture supernatant
# Procedure: as §3, §5
# [1] = tested on: mitogen-activated protein kinase (MAPK); test: MAPK pathway (p-JNK, p-p38, p-ERK, p-c-Jun) in LPS-stimulated rat peritoneal macrophages (western blotting); format: cell-based; settings: SIN 1 h, LPS 1 μg/ml 15 min or 1 h
# Procedure: as §3, §4
# p65 [2] = test: Nuclear translocation of p65 in LPS-stimulated rat peritoneal macrophages (immunofluorescence, western blotting); format: cell-based; settings: 640 μM SIN 1 h, LPS 30 min
# Procedure: Whole-cell and nuclear proteins were obtained using RIPA lysis buffer (CST, Boston, Mass., USA) and Nuclear and Cytoplasmic Extraction Reagents kit from Thermo Scientific (Asheville, N.C., USA), respectively. For immunoblotting, proteins from whole-cell, cytoplasm, nuclear, and microsomal fractions were separated on SDS-PAGE, then transferred onto a nitrocellulose membrane from GE Healthcare Life Sciences (Buckinghamshire, UK), and incubated with 5% skimmed milk at room temperature for 1 h. Membranes were incubated with the primary antibodies including cPLA2, p-cPLA2, COX-1 and p65 (all dilutions 1:1000), and COX-2 (dilution 1:500) from Cell Signaling Technology (Boston, Mass., USA); and mPGES-1 (dilution 1:200) from Cayman Chemical (Ann Arbor, Mich., USA); and β-actin (dilution 1:1000) from Santa Cruz Biotechnology (Santa Cruz, Calif., USA); and TBP (dilution 1:200) was from Abcam (Cambridge, UK) at 4° C. overnight and the band was visualized by incubating the anti-rabbit or anti-mouse secondary antibodies (dilution 1:10,000) from Li-COR (Lincoln, Nebr., USA) at room temperature for 1 h. The levels of protein expression were measured using Odyssey v3.0 software from Li-COR (Lincoln, Nebr., USA).
# RAW 264.7 cells were seeded on glass coverslip at a density 2.0×10^5 cells/well in 6-well plates and incubated for 24 h. […]
# p65 [3] = test: Nuclear translocation of p65 in LPS-stimulated RAW264.7 cells (immunofluorescence); format: cell-based, mouse; settings: 640 μM SIN 1 h, then LPS
# Procedure: RAW 264.7 cells were seeded on glass coverslip at a density 2.0×10^5 cells/well in 6-well plates and incubated for 24 h. Cells were pretreated with 640 μM SIN for 1 h and followed stimulated by LPS (100 ng/ml) for another 1 h. Rat primary peritoneal macrophages were grown on glass coverslip at a density 4.5×10^6 cells/well in 6-well plates and pretreated with 640 μM SIN for 1 h, and then challenged with LPS (1 μg/ml) for another 30 min (for NF-κB) or 2 h (for C/EBPβ). Cells were fixed with 4% paraformaldehyde for 30 min at room temperature and then blocked for 1 h with 5% BSA in PBS containing 0.1% Triton X-100. Then incubated with a primary antibodies for overnight and followed by Alexa Fluor 594-labeled goat anti-rabbit IgG. Cells were washed three times, and stained with DAPI for 30 min. After a wash step, cells were fixed on the slide and the images were acquired using a LeicaDM2500 fluorescent microscope (Leica Microsystems GmbH, Wet-zlar, Germany).
# TNF-α = TNF-α level in LPS-stimulated RAW264.7 cells (ELISA); format: cell-based, mouse; settings: pretreatment 1 h, LPS 100 ng/ml 18 h
# Procedure: as §1, §2
# IL-6 = IL-6 level in LPS-stimulated rat peritoneal macrophages (ELISA); format: cell-based; settings: pretreatment 1 h, LPS 1 μg/ml 24 h
# Procedure: as §3, §5
compound,measurement,setting,value
"COC1=C[C@@H]2[C@@H]3Cc4ccc(OC)c(O)c4[C@]2(CCN3C)CC1=O [SIN, sinomenine]",PGE2 production,PGE2,significant inhibition of PGE2 production in a dose dependent manner
same,p-cPLA2 protein expression,p-cPLA2,did not suppress
same,COX-2 protein expression,COX-2,did not suppress
same,level of PGI2,PGI2,no significant influence
same,level of PGD2,PGD2,no significant influence
same,influence on MAPK pathway,[1],No observable effects
same,nuclear translocation of p65,p65 [2],does not produce observable inhibitory effects
same,nuclear translocation of p65,p65 [3],did not produce observable effects
same,TNF-α production,TNF-α,significantly inhibited
same,IL-6 production,IL-6,significantly inhibited

# Reference: patent US20190070170A1, “METHOD OF S[…]-1” (Macau University of Science and Technology, priority 2017, published 2019)
